According to patent US6953813B1, “2-Aminotetralin derivatives for the therapy of glaucoma” (Chiesi Farmaceutici S.p.A., priority 1999, dated 2005):

Key:
[1] = in vivo; cited from earlier work
rabbit = conditions: cited from earlier work; for effect on intraocular pressure: ophthalmic drops
[2] = test system: normotensive Dutch Belted rabbits; experiment: Intraocular pressure (IOP) after single dose in normotensive rabbits; format: in vivo, rabbit; conditions: 0.2% w/v
Method: Water (pH 4.5, made isotonic with sodium chloride), was selected as vehicle for the IOP-studies.
Five concentrations (0.01, 0.05, 0.2, 0.5 and 1.0% w/v) of CHF 1035 were studied. Brimonidine (0.2% w/v) was used as a positive, and vehicle (water pH 4.5) as a negative control.
The experimental animals used were normotensive Dutch Belted rabbits of either gender (n=6). A single drop (25 μl) of the test solution was instilled unilaterally into the left eye (treated eye). IOP of the rabbits (treated and untreated eyes) was measured at 1 and 0 h before, and at 0.5, 1, 2, 3, 4, 5, 6 and 7 h after topical eyedrop administration. IOP at the time of eyedrop administration (0 h) was used as a baseline value. IOP was measured using a BioRad Pneumatonometer. More detailed description of the IOP measurement procedure can be found in Pharm. Res. 14, 1738-1743, 1997 and Curr. Eye Res. 14, 791-797, 1995. All the studies were set up using a randomized crossover design. At least 72 h of wash-out time was allowed for each rabbit between dosings. The irritation caused by an instilled eyedrop were evaluated by recording the extent of eyelid closure after topical eyedrop administration.

CCCN(CCc1cccs1)C1CCc2c(O)cccc2C1 (stereo not drawn) [2-(N-propyl-N-2-thienylethylamino)-5-hydroxytetralin]
ocular side effects [1]: can also induce eye irritation

NC1CCc2cc(O)c(O)cc2C1 (stereo not drawn) [6,7-dihydroxy-2-aminotetralin]
effect on intraocular pressure (rabbit): gives rise to eye hypotension in the rabbit

Brc1c(NC2=NCCN2)ccc2nccnc12 [Brimonidine, reference compound]
IOP changes (mean ± SEM) in the treated eye ([2]; 0 min): 0.0 ± 0.0 mmHg | IOP changes (mean ± SEM) in the treated eye ([2]; 30 min): −2.7 ± 0.9 mmHg | IOP changes (mean ± SEM) in the treated eye ([2]; 60 min): −7.8 ± 0.9 mmHg | IOP changes (mean ± SEM) in the treated eye ([2]; 120 min): −6.2 ± 1.4 mmHg | IOP changes (mean ± SEM) in the treated eye ([2]; 180 min): −3.9 ± 0.8 mmHg | IOP changes (mean ± SEM) in the treated eye ([2]; 240 min): −3.4 ± 0.7 mmHg | IOP changes (mean ± SEM) in the treated eye ([2]; 300 min): −2.4 ± 0.7 mmHg | IOP changes (mean ± SEM) in the treated eye ([2]; 360 min): −0.4 ± 0.6 mmHg | IOP changes (mean ± SEM) in the treated eye ([2]; 420 min): 0.2 ± 0.3 mmHg | IOP changes (mean ± SEM) in the untreated eye ([2]; 0 min): 0.0 ± 0.0 mmHg | IOP changes (mean ± SEM) in the untreated eye ([2]; 30 min): −3.2 ± 1.2 mmHg | IOP changes (mean ± SEM) in the untreated eye ([2]; 60 min): −8.7 ± 0.8 mmHg | IOP changes (mean ± SEM) in the untreated eye ([2]; 120 min): −3.3 ± 1.3 mmHg | IOP changes (mean ± SEM) in the untreated eye ([2]; 180 min): −1.7 ± 0.9 mmHg | IOP changes (mean ± SEM) in the untreated eye ([2]; 240 min): −2.1 ± 1.0 mmHg | IOP changes (mean ± SEM) in the untreated eye ([2]; 300 min): −0.6 ± 0.9 mmHg | IOP changes (mean ± SEM) in the untreated eye ([2]; 360 min): 0.1 ± 0.6 mmHg | IOP changes (mean ± SEM) in the untreated eye ([2]; 420 min): 0.0 ± 0.6 mmHg

CNCC(O)c1ccc(OC(=O)C(C)(C)C)c(OC(=O)C(C)(C)C)c1 (stereo not drawn) [Dipivefrin]
ocular side effects [1]: pain in the eye and in the superciliary arch as well as corneal vascularization and opacification during long-term use

CN(C)C1CCc2c(ccc(O)c2O)C1 (stereo not drawn) [M-7, N,N-dimethyl-5,6-dihydroxy-2-aminotetralin]
concentration inducing eye irritation (rabbit; in vivo): 0.1% | effect on intraocular pressure (rabbit): active as well in reducing intraocular pressure

CN(C)C1CCc2cc(O)c(O)cc2C1 (stereo not drawn) [N,N-dimethyl-6,7-dihydroxy-2-aminotetralin]
effect on intraocular pressure (rabbit): gives rise to eye hypotension in the rabbit
